Where two headings read alike, the source gives them in different places. Residues, ends and D or L forms follow the SMILES beside them. No end group written: not given here.
Assays:
[1] = target: T1, human insulin receptor (HIR) (Homo sapiens, UniProt P06213); experiment: Insulin receptor binding, competition with 125I-labeled insulin (radio-receptor assay); conditions: for HIR binding affinity: comparison with monomers / homodimers; for Kd: HIR binding affinity of synthetic peptides
T1 construct: made in house

[2] = target: recombinant human insulin receptor (Homo sapiens, UniProt P06213); experiment: Substrate phosphorylation assay (HIR kinase); type: biochemical; conditions: for Kinase Pot. (nM): potency, Table 8
Protocol: Subsequently, a 2000-fold dilution of horseradish peroxidase (HRPO) conjugated phosphotyrosine antibody (Transduction Laboratories, Cat. No. E120H) in TBS was added. The plates were incubated for 30 min and washed 3 times with TBS. TMB (3,3′,5,5′-tetramethylbenzidine; Kem-En-Tec, Copenhagen, Denmark) was added. One substrate from Kem-En-Tec was added. After 10^−15 min, the reaction was stopped by the addition of 1% acetic acid. The absorbance, representing the extent of substrate phosphorylation, was measured in a spectrophotometer at a wavelength of 450 nm.

free fat cells = experiment: Adipocyte / free fat cell (FFC) assay, 3H glucose incorporation into lipid; conditions: for FFC Pot.: agonist or antagonist / FFC Pot.: Table 8; for FFC Pot.: potency
MCF-7 cells [3] = experiment: MCF-7 cell proliferation assay, antagonist format (50 nM IGF-1); conditions: proliferation assays in the presence of IGF-1 using MCF-7 and MiaPaCa cells; Table 23
IR = target: T2, IR (Homo sapiens, UniProt P06213); experiment: Phage ELISA, binding of phage clones to IR (ratio over background); conditions: ratio of IR divided by ratio of IGF-1R
T2 construct: replacing the transmembrane domain and the intracellular domain of IR with constant domains from immunoglobulin Fc or λ subunits; made in house; host or cells: human embryonic kidney 293 cells (as described for the Bass construct)

IGF-1R [4] = target: T3, IGF-1R (Homo sapiens, UniProt P08069); experiment: Phage ELISA, binding of phage clones to IGF-1R (ratio over background); set-up: included the heterotetrameric (alpha 2-beta 2) extracellular domain of IGF-1R isolated from a mouse myeloma cell line; purchased R&D Systems 391-GR/CF; host or cells: mouse myeloma cell line; conditions: ratio of IGF-1R divided by ratio of IR
[5] = target: T4, soluble human insulin receptor-immunoglobulin heavy chain chimera (sIR-Fc) (Homo sapiens, UniProt P06213); experiment: Fluorescence polarization competition with FITC-RP9, sIR-Fc; type: binding; conditions: for affinity / potency at IR: FP, FITC-RP9, summary of Table 22; for Bndg Ratio IGF-1R/1R: higher values indicated higher affinity for IR than IGF-1R
T4 construct: replacing the transmembrane domain and the intracellular domain of IR with constant domains from immunoglobulin Fc or λ subunits; made in house; host or cells: human embryonic kidney 293 cells (as described for the Bass construct)

IGF-1R [6] = target: T3, IGF-1R; conditions: for binding ratio for IGF-1R over IR: TR-FRET at rhIGF-1R versus FP at sIR-Fc, summary of Table 22
[7] = target: soluble human insulin mini-receptor (mIR) (Homo sapiens, UniProt P06213, DEL496-730); experiment: Fluorescence polarization competition with FITC-RP9, mIR; type: binding; conditions: target mIR, label FITC-RP9, FP
[8] = system: FDC-P2 cells expressing the IL-3 and human IGF-1R receptors
[9] = target: His-tagged soluble recombinant human IGF-1R (srhIGF-1R-his) (Homo sapiens, UniProt P08069); experiment: ALPHAScreen binding assay, competition with b-hIGF-1; conditions: Table 29
MCF-7 cells [10] = experiment: MCF-7 cell proliferation assay, agonist format; type: cell-based, human
[11] = system: FDC-P2 cells expressing the IL-3 and human IGF-1R receptors; experiment: IGF-1 proliferation assay in FDC-P2 cells, antagonist format
MiaPaCa cells = experiment: MiaPaCa cell proliferation assay, agonist format; type: cell-based, human; conditions: serum-free conditions
IGF-1R [12] = target: T3, IGF-1R; experiment: TR-FRET, dissociation of biotinylated-20E2 from IGF-1R; type: binding; conditions: peptides 100 μM, IGF-1 30 μM
Protocol: Best fit non-linear regression analysis of the data, was used to determine dissociation rate constants. Each data point represents a single observation.
Reactions were allowed to reach equilibrium for 6 h at RT.

[13] = target: insulin receptor construct transfected into 32D cells (Homo sapiens, UniProt P06213); experiment: IR autophosphorylation assay in IR transfected 32D cells (ELISA); conditions: MBP fusion peptides, FIG. 30
[14] = in the presence of a stimulating concentration of insulin
[15] = standard concentration of insulin

“MADYKDDDDKGSLDESFYDWFERQLGKKGGSGGSWLDQEWAWVQCEVYGRGCPSAAA(ETAG)PG [Peptide 537]” was tested, and the “HIR binding affinity” value [1] was “substantially higher (several orders of magnitude) affinity”, the “Kinase Pot. (nM)” value [2] was “Inactive” and the “activity in the FFC assay / at IR” value (free fat cells) was “specific insulin receptor antagonists”. For the same molecule, the “FFC Pot.: agonist or antagonist” value (free fat cells) was “N”, the “activity in the FFC assay” value (free fat cells; [14]) was “antagonists” and the “FFC Pot.” value (free fat cells) was 10 nM. For the same molecule, the “activity in the FFC assay” value (free fat cells; [15]) was “inactive”.

“WFGYAWLS-NH2 (C-terminus assumed) [Peptide S317]” was tested, and the “HIR binding affinity” value [1] was “increased HIR binding affinity”, the “activity in the FFC assay / at IR” value (free fat cells) was “increased potency in FFC assays” and the FEC (free fat cells; FFC assay potency, number of + grades agonist potency) was 0.

CC(C)C[C@@H]1NC(=O)[C@@H](NC(=O)[C@H](CO)NC(=O)[C@H](Cc2ccc(O)cc2)NC(=O)[C@H](Cc2ccccc2)NC(=O)[C@@H](N)CO)CSSC[C@@H](C(=O)N[C@@H](CCCNC(=N)N)C(=O)N[C@@H](CCCCN)C(=O)N[C@@H](CCCCN)C(=O)O)NC(=O)CNC(=O)[C@H](CC(=O)O)NC(=O)[C@H](Cc2c[nH]c3ccccc23)NC(=O)[C@H](CCC(N)=O)NC(=O)CNC(=O)[C@H](CCCNC(=N)N)NC(=O)[C@H](CO)NC(=O)[C@H](CCCCN)NC(=O)[C@H](CCC(=O)O)NC(=O)[C@H](C)NC(=O)[C@@H]2CCCN2C(=O)CNC(=O)[C@H](CC(N)=O)NC(=O)[C@H](C(C)C)NC(=O)[C@H](CC(C)C)NC(=O)[C@H](CO)NC(=O)[C@H](CCC(=O)O)NC1=O [RP33-IGF with KK] was tested, and the Activ. (MCF-7 cells [3]) was “Antag”.

For “FYVQQYWGHENFYDWFDRQVSQSGGAG [H2CA-4-P1-IGFR]”, the “Comparisons IR/IGF-1R” value (IR) was 0.3 and the “Comparisons IGF-1R/IR” value (IGF-1R [4]) was 3.8.

For PPWGARFYDAIEQLVFDNL [RP4], the “affinity / potency at IR” value [5] was “high affinities for IR”, the “Bndg Ratio IGF-1R/1R” value [5] was 476 and the IC50 ([5]; vs. FITC-RP9, Table 22, read-out: FP sIR-Fc IC50) was 0.017 µM. The IC50 (IGF-1R [6]) was 8.1 µM and the “binding ratio for IGF-1R over IR” value (IGF-1R [6]) was “high binding ratios for IGF-1R over IR”.

With “MADYKDDDDKWLDQEWAWVQCEWGRGCPSGGSGGSGSLDESFYDWFERQLGKKAAA(ETAG)PG [Peptide 539]” the “HIR binding affinity” value [1] was “substantially higher (several orders of magnitude) affinity”, the “activity in the HIR kinase assay” value [2] was “more active” and the “activity in the FFC assay / at IR” value (free fat cells) was “full agonist”. For the same molecule, the “FFC Pot.” value (free fat cells) was 10 nM.

For GRVDWLQRNANFYDWFVAELG [Peptide S175], the Hill [7] was −1.72, the EC50 [8] was 10 µM and the “ED50, agonist activity at IGF-1R” value ([8]; FDC-P2 cells) was greater than 10 µM. For the same molecule, the “agonist activity at IGF-1R” value ([8]; FDC-P2 cells) was “IGF-1R agonist activity”.

With CC(C)C[C@H](NC(=O)[C@@H](N)CCC(N)=O)C(=O)N[C@@H](CCC(=O)O)C(=O)N[C@@H](CCC(=O)O)C(=O)N[C@@H](CCC(=O)O)C(=O)N[C@@H](Cc1c[nH]c2ccccc12)C(=O)N[C@@H](C)C(=O)NCC(=O)N[C@H](C(=O)N[C@@H](CCC(N)=O)C(=O)N[C@H]1CSSC[C@@H](C(=O)N2CCC[C@H]2C(=O)N[C@@H](CO)C(=O)O)NC(=O)[C@H](CCC(=O)O)NC(=O)[C@H](CCCNC(=N)N)NC(=O)CNC(=O)[C@H](Cc2ccc(O)cc2)NC(=O)[C@H](C(C)C)NC(=O)[C@H](CCC(=O)O)NC1=O)C(C)C [Peptide S226] (HELM PEPTIDE1{Q.L.E.E.E.W.A.G.V.Q.C.E.V.Y.G.R.E.C.P.S}$PEPTIDE1,PEPTIDE1,11:R3-18:R3$$$V2.0; N-terminus and C-terminus assumed; bridges inferred) the Kd [1] was 1.6 µM.

For “MADYKDDDDKGSLDESFYDWFERQLGKKGGSGGSGGSGGSWLDQEWAWVQCEVYGRGCPSAAA(ETAG)PG [Peptide 538]”, the “HIR binding affinity” value [1] was “substantially higher (several orders of magnitude) affinity”, the “Kinase Pot. (nM)” value [2] was “Inactive” and the “activity in the FFC assay / at IR” value (free fat cells) was “specific insulin receptor antagonists”. For the same molecule, the “FFC Pot.: agonist or antagonist” value (free fat cells) was “N”, the “activity in the FFC assay” value (free fat cells; [14]) was “antagonists” and the “FFC Pot.” value (free fat cells) was 10 nM. For the same molecule, the “activity in the FFC assay” value (free fat cells; [15]) was “inactive”.

With “GIISQSCPESFYDWFAGQVSDPWWCW [Peptide G33]” the “affinity / potency at IR” value [5] was “less potent”, the IC50 [9] was 0.6 µM and the “IGF-1R agonist activity” value (MCF-7 cells [10]; MCF-7 and MiaPaCa cell proliferation (Tables 27-28)) was “IGF-1R agonist activity”. The “ED50, agonist activity at IGF-1R” value ([8]; FDC-P2 cells) was roughly 10 µM, the “agonist activity at IGF-1R” value ([8]; FDC-P2 cells) was “IGF-1R agonist activity” and the “ED50 Growth” value ([8]; FDC-P2 cells, agonist format, Table 15) was 0.5 µM. The “Max Action” value ([8]; FDC-P2 cells, Table 15) was greater than 50%, the “FDC-P2 Agonist” value ([8]; Table 30) was “+” and the “antagonist activity at IGF-1R” value [11] was “no antagonist activity”.

In the case of “IGF-1: Insulin-like growth factor 1, from PeproTech; control”, the “ED50, proliferation” value (MCF-7 cells [10]; MCF-7, serum-free conditions) is reported as 0.005 µM and the “ED50, proliferation” value (MiaPaCa cells) is reported as 0.005 µM.

With CC(C)C[C@H](NC(=O)[C@H](CCC(N)=O)NC(=O)[C@H](CCCNC(=N)N)NC(=O)[C@H](CCC(=O)O)NC(=O)[C@H](Cc1ccccc1)NC(=O)[C@H](Cc1c[nH]c2ccccc12)NC(=O)[C@H](CC(=O)O)NC(=O)[C@H](Cc1ccc(O)cc1)NC(=O)[C@H](Cc1ccccc1)NC(=O)[C@H](CO)NC(=O)[C@@H](N)CCC(=O)O)C(=O)NCC(=O)O [Peptide S390] the Hill [7] was −0.94 and the “activity in the FFC assay / at IR” value (free fat cells) was “potency similar to full-length RP9 monomer peptides”.

In the case of HDPFYSMMKSLLK [Peptide S120], the Kd [1] is reported as 2 µM.

For FHENFYDWFVQRVSKK [Peptide H2C], the Hill [7] was −0.89, the “affinity / potency at IR” value [5] was “slightly less potent” and the “rate of dissociation of b-20E2” value (IGF-1R [12]) was “similar”. The “binding ratio for IGF-1R over IR” value (IGF-1R [6]) was “lower binding ratios for IGF-1R over IR” and the “stimulation of autophosphorylation of IR” value [13] was “stimulate autophosphorylation of IR”.

In the case of DYKDFYDAIDQLVRGSARAGGTRD [20E2(D118)], the “Bndg Ratio IGF-1R/1R” value [5] is reported as 1.9 and the IC50 (IGF-1R [6]; read-out: TR-FRET rhIGF-1R IC50, vs. b-20E2, Table 22) is reported as 0.1 µM.

— patent US20090053807A1 (Novo Nordisk A/S, priority 1998, published 2009)
